Test results: patent publication US20140350097A1, “TREATMENT OF HYPOTENSION ASSOCIATED WITH HEMODIALYSIS” (priority 2013, published 2014)

Key:
[1] = system: beagle dogs; test: 14-day infusion toxicity in beagle dogs; type: in vivo
Protocol: Based on the findings from the 4-day study, doses of NOX-100 at 100, 500 and 1000 mg/kg/day infused over a period of 8 hours for 14 days were evaluated in beagle dogs. […] Therefore the high dose of 1000 mg/kg/day was reduced to 250 mg/kg/day on Days 8-14. […] The low dose of 100 mg/kg/day over a period of 8 hours was considered a no-effect level.
The no adverse effect level in dogs (the animal that appeared most sensitive to the effects of NOX-100) was 100 mg/kg given as an 8 hour daily infusion for 14 days. In this study, the NOX-100 was administered as an 11.1 mg/kg bolus loading dose and an 8-hour 11.1 mg/kg/hr infusion maintenance dose.

[2] = Preliminary intravenous pharmacokinetics in rats; type: in vivo, rat; settings: bolus injection 30 mg/kg i.v.
Protocol: (§1) The pharmacokinetics of intravenously administered NOX-100 was evaluated in mice, rats and dogs. Preliminary pharmacokinetic studies were conducted using a bolus injection of 30 mg/kg. Post injection, the drug was rapidly eliminated in all three species in a bi-exponential manner with a beta-t½ of approximately 6, 30 and 40 minutes in the mouse, rat and dog, respectively. […] The volume of distribution was around 20-30% of body weight and was similar in the three species. This is likely due to the hydrophilic nature of the drug and may reflect the distribution of NOX-100 primarily in the extracellular space.

[3] = system: albino rats; test: Single dose infusion toxicity in albino rats; type: in vivo; settings: single dose 1000, 1450 or 2000 mg/kg infused over 2 or 8 hours
Protocol: Based on the preliminary I.V. and S.C. studies, doses of 1000, 1450 or 2000 mg/kg of NOX-100 administered over an 8-hour period were tested in albino rats. A total dose of 2000 mg/kg administered over a shorter period of 2 hours was then tested.

[4] = system: Crj:CD(SD)IGS rats (SPF); test: Four-week repeated dose intravenous toxicity study in rats with two-week recovery; type: in vivo, rat
Protocol: (§2) The objective of this study was to investigate the toxicity of NOX-100 when administered as a single intravenous injection once daily for four consecutive weeks to Sprague-Dawley (SPF) rats and to determine the reversibility of changes which were established as treatment related.
NOX-100 was administered intravenously as a daily single dose (“pulse”) (40 mL/kg) at doses of 100, 500, and 2000 mg/kg/day for four weeks in Crj:CD(SD)IGS rats (SPF). The Control group was treated with saline (n=60 rats per gender−balanced randomization across all groups.) Following termination of treatment, an additional group of rats in the Control and highest dose group were held for a period of two weeks in order determine if the potential treatment related changes were reversible.

[5] = system: rats; test: 4-day infusion toxicity in rats (2000 mg/kg over 2 hours); type: in vivo, rat
Protocol: The high dose of 2000 mg/kg of NOX-100 administered over a period of 2 hours was again tested in a group of rats for 4 consecutive days. […] Mitotic figures in basophilic tubules were also noted. These changes were considered treatment related. […] It appeared that female rats had lower plasma concentrations of NOX-100 compared to males.

[6] = system: beagle dogs; test: Four-week repeated dose intravenous toxicity study in beagle dogs with two-week recovery; type: in vivo, dog
Protocol: as §2, with “beagle dogs” for “Sprague-Dawley (SPF) rats”, “related. In addition, the systemic exposure of the animals to the test substance was determined and evaluated for correlation with dose and time after starting treatment.” for “related.”
NOX-100 was administered intravenously as a daily single dose (20 mL/kg administered over approximately 2.5 minutes) of 100, 300, and 1000 mg/kg for four weeks in Beagle dogs (n=17 dogs per gender−unbalanced randomization across treated groups). Following the termination of treatment, an additional group of dogs in the Control and highest dose group were held for a period of two weeks in order to determine if the potential treatment related changes were reversible.

[7] = Preliminary intravenous pharmacokinetics in dogs; type: in vivo, dog; settings: bolus injection 30 mg/kg i.v.
Protocol: as §1

[8] = system: rat model of shock induced by hemorrhage; test: Hemorrhagic shock rat model; type: in vivo; settings: rats, 0.1 mmol/kg/hour
Text: Treatment of these rats with NOX-100 (0.1 mmol/kg/hour) reduced the blood volume needed to maintain the blood pressure during shock and improved mean arterial pressure after resuscitation.

[9] = 2000 mg/kg over 2 hours, 4 consecutive days
[10] = both, beagle, dog, in vivo, 4 weeks
[11] = 24 hours after hemorrhagic shock

With `CN(C[C@H](O)[C@@H](O)[C@H](O)[C@H](O)CO)C(=S)S` [NOX-100, N-methyl-D-glucamine dithiocarbamate] the mortality ([1]; 1000 mg/kg/day, 8-hour infusion) was “One male dog in the high dose (1000 mg/kg/day) group died on Day 6”, the dose concentration relationship ([1]; dog, in vivo) was “proportional dose concentration relationship” and the “mean plasma concentration throughout Days 1, 7 and 14” value ([1]; dog, in vivo) was “similar”. For the same compound, the “mean steady state plasma concentrations, males versus females” value ([1]; dog, in vivo) was “no differences”, the “dose level of initial toxicity as multiple of the no adverse effect level” value ([1]; dogs) was 5 times and the “no adverse effect level” value ([1]; dogs, 8 hour daily infusion for 14 days) was 100 mg/kg. The no-effect level ([1]; dogs, over a period of 8 hours, 14 days) was 100 mg/kg/day, the “mean plasma concentration between 4 to 7.75 hours from the start of infusion” value ([1]; each day) was “remained constant” and the “clinical and laboratory findings accompanied by renal lesions” value ([1]; generally at 500 or 1000 mg/kg/day) was “Clinical signs of deterioration, reduction in body weight and food intake together with changes in serum chemistry and creatinine clearance”. For the same compound, the “histopathological examination of the animal that died” value ([1]; male, 1000 mg/kg/day) was “renal lesions consisting of tubular basophilia and dilatation, hyperplasia of the transitional epithelium of the papilla and some vascular hemorrhage or congestion”, the half-life ([2]; in vivo, iv, rat, read-out: beta-t½) was ~30 min and the clearance ([2]; rat, in vivo, iv, rats, read-out: clearance rate) was 15 ± 1 mL/min/kg. The volume of distribution ([2]; rats) was 20-30 % of body weight, the mortality [3] was “no mortality” and the “food consumption or body weight gain versus Control” value ([4]; rat, in vivo) was “no significant differences”. For the same compound, the ophthalmological examinations ([4]; rat, in vivo) was “No changes”, the “reversibility after a two week period of bladder mucosal hyperplasia, proximal tubule basophilia and renal papillary edema” value ([4]; rat, in vivo) was “could not be confirmed” and the “reversibility of urinary bladder change” value ([4]; rat, in vivo) was “no clear-cut reversibility”. The “blood sodium, chloride and albumin” value ([4]; rat, in vivo, 2000 mg/kg) was “increased”, the cholesterol level ([4]; rat, in vivo, 2000 mg/kg) was “increased” and the hemoglobin ([4]; rat, in vivo, 2000 mg/kg) was “decrease”. For the same compound, the “no adverse effect level” value ([4]; rats, daily single i.v. dose, four weeks) was 100 mg/kg, the “plasma concentrations in female rats compared to males” value ([5]; 2000 mg/kg) was “lower” and the “hemoglobin and hematocrit values” [5, 9] was “slight decrease”. The “red blood cell count” value [5, 9] was “slight decrease”, the “animals with cortical tubular basophilia of the kidney, occasionally with tubular dilatation” value ([5]; 5 males, 2000 mg/kg/day, 2-hour infusion, 4 consecutive days) was 5/5 and the “plasma concentrations on Day 4 compared to Day 1” value ([5]; HPLC, 1 and 1.75 hours after infusion, 2000 mg/kg) was “slightly higher”. The “mitotic figures in basophilic tubules” value ([5]; males, 2000 mg/kg/day, 4 consecutive days) was “noted”, the “clinical observation: salivation” value [6, 10] was “salivation in the 1000 mg/kg group” and the “clinical observation: vomiting” value [6, 10] was “vomiting in the 100 mg/kg or higher dose groups”. For the same compound, the “body weight, food consumption, hematology, EKG, ophthalmology or organ weights” value ([6]; dog, in vivo) was “no changes”, the “gender related difference in systemic exposure” value ([6]; dog, in vivo) was “no gender related difference” and the “incidence of vomiting after dosing, Treated groups versus group not dosed” value ([6]; dog, in vivo) was “higher”. The “microscopic changes due to study substance” value ([6]; dog, in vivo) was “no microscopic changes”, the “reversibility of other changes” value ([6]; dog, in vivo) was “reversed completely or showed a tendency for reversal” and the “site of main toxicological findings” value ([6]; dog, in vivo) was “kidneys and urinary bladder”. For the same compound, the “systemic exposure (blood levels) versus dose” value ([6]; dog, in vivo) was “linear dose dependent increase”, the “urine specific gravity and urine volume” value ([6]; dog, in vivo) was “decrease in specific gravity and increase in urine volume” and the “histopathological examination: pelvic mucosa and urinary bladder” value ([6]; dog, in vivo, 1000 mg/kg) was “Inflammatory cell infiltration in the pelvic mucosa, and erosion of mucosa in the urinary bladder”. The “kidney histopathology of the moribund animal” value ([6]; dog, in vivo, 1000 mg/kg) was “moderate basophilia of the proximal renal tubules, pelvic mucosal epithelial hyperplasia, hyaline droplets in the proximal tubular epithelium and pelvic mucosal epithelium in the kidneys”, the “laboratory determinations of sodium” value ([6]; dog, in vivo, 1000 mg/kg) was “increased” and the “laboratory results on the day of necropsy, moribund animal” value ([6]; dog, in vivo, 1000 mg/kg) was “an increased white cell count with increased segmented neutrophils and an increase in gamma GT, ALP, urea nitrogen, creatinine, glucose, cholesterol, phospholipids, triglyceride, total protein, albumin, inorganic phosphorus and magnesium and a decrease in sodium and chloride”. The moribundity ([6]; dog, in vivo, 1000 mg/kg) was “became moribund six days after starting treatment”, the “necropsy organ weights of the moribund animal” value ([6]; dog, in vivo, 1000 mg/kg) was “increased absolute and relative weight of the liver, kidneys and adrenals with a decrease noted in the thymus weight” and the “other histopathological findings in the moribund animal” value ([6]; dog, in vivo, 1000 mg/kg) was “follicular atrophy of the mesenteric lymph node, acute atrophy of the thymus, glycogen accumulation in the liver, erosion of mucosa in the urinary bladder, and hypertrophy of cortical cells in the fascicular zone of the adrenals”. For the same compound, the “renal papilla of the moribund animal” value ([6]; dog, in vivo, 1000 mg/kg) was “for the most part necrotic”, the “no adverse effect level” value ([6]; dogs, pulse IV injection daily, four weeks) was “less than 100 mg/kg” and the “clinical signs in the moribund animal” value ([6]; male, beagle, dog, in vivo, 1000 mg/kg) was “vomiting occurred on Days 1 to 6, no stools were passed on Days 4 to 6, decreased locomotor activity was noted on Days 5 to 6 and hypothermia and lateral position was noted on Day 6”. The clearance ([7]; dog, in vivo, iv, dogs, read-out: clearance rate) was 4.1 ± 0.6 mL/min/kg, the volume of distribution ([7]; dogs) was 20-30 % of body weight and the half-life ([7]; in vivo, iv, dog, read-out: beta-t½) was ~40 min. For the same compound, the “blood volume needed to maintain the blood pressure during shock” value [8] was “reduced”, the “mean arterial pressure after resuscitation” value [8] was “improved” and the “elevation of serum ornithine carbamoyltransferase (indicator of hepatic injury)” value [8, 11] was “prevented”. The inflammatory gene expression [8, 11] was “prevented” and the transcription factor activation [8, 11] was “prevented”.
